Experimental data from patent US20040109825A1, “Topical patch preparation kit containing a delayed-type hypersensitivity inducer” (priority 2002, published 2004).

Tests used:
[1] = Stability of DNCB in a dissolved state; format: physicochemical; details: even more unstable at high temperatures
[2] = cited from earlier work

O=[N+]([O-])c1ccc(Cl)c([N+](=O)[O-])c1 [DNCB, 1-chloro-2,4-dinitrobenzene]
stability in a dissolved state [1]: unstable in a dissolved state | adverse events of DNCB ([2]; reports to date): have not been any reports to date of cases of life-threatening adverse events | carcinogenicity ([2]; research conducted in the 1950s in the United States): not carcinogenic
